# Results from PMC10385824, “Antiproliferative and Tubulin-Destabilising Effects of 3-(Prop-1-en-2-yl)azetidin-2-Ones and Related Compounds in MCF-7 and MDA-MB-231 Breast Cancer Cells” (Pharmaceuticals, 2023).
# Where two headings read alike, the source gives them in different places.
# Key:
# SF-268 = assay: NCI-60 SRB screen, CNS cancer; format: cell-based, human; settings: 48 h; for GI50: Homo sapiens, five dose 0.01–100 µM
# Description: The initial NCI 60 cell line screen used the sulforhodamine B (SRB) protein assay, at one dose concentration (10 μM), and subsequently, a five-dose screening in the concentration range 0.01–100 μM was carried out.
# NCI-H332M = assay: NCI-60 SRB screen, non-small cell lung cancer; format: cell-based; settings: Homo sapiens, 48 h
# SF295 = assay: NCI-60 SRB screen, CNS cancer; format: cell-based, human; settings: for GI50: Homo sapiens
# UACC-257 = assay: NCI-60 SRB screen, melanoma; format: cell-based, human; settings: for GI50: Homo sapiens
# MCF-7 cells [1] = assay: Lactate dehydrogenase (LDH) cytotoxicity assay; format: cell-based, human; settings: 10 μM, 72 h, LDH release
# Description: The cytotoxic effects of the compounds were determined using the CytoTox 96 non-radioactive cytotoxicity assay (Promega) as previously reported. The MCF-7 cells were seeded in 96-well plates and incubated for 24 h. Cells were treated with test compounds 16, 26 and 30 at 10 μM concentration as described in the cell viability assay above. At 72 hr, 20 μL of ‘lysis solution (10X)’ was added to the control wells to ensure 100% death. The cells were incubated for a further 1 hr. Supernatant (50 μL) was removed from each well and transferred to a 96-well plate. Cytotox 96R Reagent (50 μL) was added to each well, and the plate was retained in darkness at 20 °C for 30 min. 50 μL of ‘stop solution’ was then added to each well, and the absorbance was determined at 490 nm using a Dynatech MR5000 plate reader. The cell death (%) at 10 μM was determined.
# [2] = tested on: colchicine-binding site of β-tubulin (Cys239, Cys354) in MCF-7 cells; assay: Colchicine-binding site assay (EBI crosslinking, Western blot); settings: 10 μM, 2 h, then EBI
# [3] = HPLC stability study in plasma; format: in vitro ADME, human; settings: buffered plasma (plasma:buffer 1:9); for half-life at 41.3 µg/mL: human blood plasma, read-out: half-life (t½); for remaining at 24 h, 41.3 µg/mL: study over 24 h
# Description: Analytical high-performance liquid chromatography (HPLC) stability studies were performed as follows using Symmetry® column (C18, 5 µm, 4.6 × 150 mm), Waters 2487 Dual Wavelength Absorbance detector, Waters 1525 binary HPLC pump and Waters 717 plus Autosampler (Waters Corporation, Milford, MA, USA) with detection at 254 nm as previously described. Samples were analysed using mobile phase acetonitrile (80%): water (20%), flow rate (1 mL/min) over 10 min. […] First, 30 µL of compound stock solution was diluted with appropriate buffer (1 mL); sample was shaken and injected immediately. Samples were withdrawn and analysed at the following time points: t = 0 min, 5 min, 30 min, 60 min, 90 min, 120 min, 24 h and 48 h. (ii) Thermal stability: Compound stock solution (1 mL) was placed in a glass vial on a heating block for 4 h at 60 °C. The sample was then cooled, diluted (acetonitrile) and analysed. (ii) Oxidising conditions: H2O2 (3%, 0.2 mL) was added to compound stock solution (0.8 mL). The vial was vortexed and retained at 20 °C, and the sample was analysed at 60, 120 180 and 240 min. (iv) Acidic conditions: HCl (0.1 M, 0.2 mL) was added to stock solutions (0.8 mL). The vial was mixed by vortex and retained at 20 °C. A sample was neutralised with NaOH (0.1 M, 0.2 mL) at 60, 120, 180 and 240 min, followed by HPLC analysis. (v) Alkaline conditions: NaOH (0.1 M, 0.2 mL) was added to stock solution (0.8 mL) of the compound in a vial. The vial was mixed by vortex and retained at 20 °C. A sample was neutralised with HCl (0.1 M, 0.2 mL) at 60, 120, 180 and 240 min followed by HPLC analysis. (vi) Photostability study: Compounds (stock solution, 1 mL) were placed in a vial, exposed to UV light for 4 h and then analysed by HPLC as above. Stability studies in plasma: Approval for this study was obtained from the School of Pharmacy and Pharmaceutical Sciences Trinity College Dublin Research Ethics Committee (2020–06-01-MS). Following informed consent, blood was withdrawn from healthy volunteers, and plasma was obtained by centrifugation and kept at −20 °C until further use. […] A sample (250 µL) was then added to the Eppendorf tube containing ZnSO4.7H2O solution (500 µL) (2% w/v ZnSO4 solution in acetonitrile:water, 1:1). The samples were centrifuged (10,000 rpm, 3 min), filtered (0.2 micron filter) and analysed by HPLC as above. Further samples were taken at one-hour intervals.
# MCF-7 cells [4] = assay: Annexin-V/PI apoptosis assay; settings: for cells undergoing apoptosis (early+late): 72 h
# Description: Flow cytometry using annexin-V and propidium iodide (PI) was used to detect apoptotic cell death in MCF-7 cells. […] Cells were then incubated on ice in darkness for 30 min in annexin-V-containing binding buffer [1:100]. Cells were washed once in binding buffer and then re-suspended in propidium iodide containing binding buffer [1:1000]. Cells were analysed directly using the BD Accuri flow cytometer and Prism software. Four cell populations are produced in this assay: annexin-V- and PI-negative (Q4, healthy cells), annexin-V-positive and PI-negative (Q3, early apoptosis), annexin-V- and PI-positive (Q2, late apoptosis) and annexin-V-negative and PI-positive (Q1, necrosis). CA-4 (50 nM) was used as the positive control for apoptosis.
# Cells were then collected and processed for analysis.
# [5] = HPLC stability study in phosphate buffers; format: physicochemical; settings: for half-life at 14.6 µg/mL / remaining at 24 h, 14.6 µg/mL / remaining at 264 h, 14.6 µg/mL: phosphate buffer; for half-life at 14.6 µg/mL: read-out: half-life (t½) (converted); for remaining at 24 h, 14.6 µg/mL: study over 24 h; for remaining at 264 h, 14.6 µg/mL: study over 264 h
# [6] = […], five dose 0.01–100 µM, read-out: GI50
# [7] = SF-295, SF295, five dose 0.01–100 µM, 48 h, read-out: GI50
# [8] = UACC-257, five dose 0.01–100 µM, 48 h, read-out: GI50
# [9] = five dose 0.01–100 µM, read-out: GI50
# [10] = Homo sapiens, MCF7, 72 h, read-out: Viable
structure (smiles),measurement,setting,value
"COc1ccc(C2C(C(C)C)C(=O)N2c2cc(OC)c(OC)c(OC)c2)cc1OP(=O)(O)O (stereo not shown) [15b, 5-(3-Isopropyl-1-(3,4,5-trimethoxyphenyl)-4-oxoazetidin-2-yl)-2-methoxyphenyl dihydrogen phosphate]",GI50,SF-268,447 nM
same,GI50,NCI-H332M; [6],592 nM
same,GI50,SF295; [7],137 nM
same,GI50,UACC-257; [8],> 100000 nM
"C=C(C)C1C(=O)N(c2cc(OC)c(OC)c(OC)c2)C1c1ccc(OC)cc1 (stereo not shown) [9h, 4-(4-Methoxyphenyl)-1-(3,4,5-trimethoxyphenyl)-3-(prop-1-en-2-yl)azetidin-2-one]",GI50,SF295; [7],43 nM
same,cell death,MCF-7 cells [1],30%
"C=C(C)C1C(=O)N(c2cc(OC)c(OC)c(OC)c2)C1c1ccc(OC)c(N)c1 (stereo not shown) [9s, 4-(3-Amino-4-methoxyphenyl)-1-(3,4,5-trimethoxyphenyl)-3-(prop-1-en-2-yl)azetidin-2-one]",GI50,NCI-H332M; [9],51.1 nM
same,GI50,SF295; [7],34.4 nM
same,GI50,UACC-257; [8],> 100000 nM
"C=C(C)C1C(=O)N(c2cc(OC)c(OC)c(OC)c2)C1c1ccc(OC)c(O)c1 (stereo not shown) [9q, 4-(3-Hydroxy-4-methoxyphenyl)-1-(3,4,5-trimethoxyphenyl)-3-(prop-1-en-2-yl)azetidin-2-one]",formation of β-tubulin-EBI adduct,[2],formation of the EBI adduct was prevented
same,GI50,SF-268,22.9 nM
same,% Growth,SF-268; one dose 10 µM,19.27%
same,GI50,NCI-H332M; [6],47.7 nM
same,half-life at 41.3 µg/mL,[3],> 24 h
same,"remaining at 24 h, 41.3 µg/mL","[3]; human, Plasma",80%
same,GI50,SF295; [7],< 10 nM
same,% Growth,"SF295; SF-295, one dose 10 µM, 48 h",20.26%
same,cell death,MCF-7 cells [1],32%
same,cells undergoing apoptosis (early+late),MCF-7 cells [4]; 50 nM,27%
same,cells undergoing apoptosis (early+late),MCF-7 cells [4]; 500 nM,38.9%
same,viability at 0.05 µM,MCF-7 cells [4]; [10],69.2%
same,viability at 0.5 µM,MCF-7 cells [4]; [10],57%
same,% Growth,"UACC-257; UACC-257, one dose 10 µM, 48 h",74.47%
same,half-life at 14.6 µg/mL,[5]; pH 4,13 h
same,half-life at 14.6 µg/mL,[5]; pH 7.4,13 h
same,half-life at 14.6 µg/mL,[5]; pH 9,6 h
same,"remaining at 24 h, 14.6 µg/mL",[5]; pH 4.0,33%
same,"remaining at 24 h, 14.6 µg/mL",[5]; pH 7.4,35%
same,"remaining at 24 h, 14.6 µg/mL",[5]; pH 9.0,34%
"C=C(C)C1C(=O)N(c2cc(OC)c(OC)c(OC)c2)C1c1ccc(OC)c(OP(=O)(O)O)c1 (stereo not shown) [15a, 2-Methoxy-5-(4-oxo-3-(prop-1-en-2-yl)-1-(3,4,5-trimethoxyphenyl)azetidin-2-yl)-phenyl dihydrogen phosphate]",GI50,SF-268,98.1 nM
same,GI50,NCI-H332M; [6],82 nM
same,half-life at 41.3 µg/mL,[3],> 24 h
same,"remaining at 24 h, 41.3 µg/mL","[3]; human, Plasma",97%
same,GI50,SF295; [7],32.4 nM
same,GI50,UACC-257; [8],> 100000 nM
same,half-life at 14.6 µg/mL,[5]; pH 4,> 24 h
same,half-life at 14.6 µg/mL,[5]; pH 7.4,> 24 h
same,"remaining at 24 h, 14.6 µg/mL",[5]; pH 4.0,96%
same,"remaining at 24 h, 14.6 µg/mL",[5]; pH 7.4,98%
"C=CCC1C(=O)N(c2cc(OC)c(OC)c(OC)c2)C1c1ccc(OC)c(O)c1 (stereo not shown) [10p, 4-(3-Hydroxy-4-methoxyphenyl)-1-(3,4,5-trimethoxyphenyl)-3-allylazetidin-2-one]",GI50,NCI-H332M; [9],51.2 nM
same,"remaining at 264 h, 41.3 µg/mL","[3]; human, Plasma, study over 264 h",97%
same,GI50,SF295; [7],29.1 nM
same,compound remaining,"[5]; all pH values (4, 7.4, 9), after 11 days",over 95%
same,"remaining at 264 h, 14.6 µg/mL",[5]; pH 4.0,98%
same,"remaining at 264 h, 14.6 µg/mL",[5]; pH 7.4,99%
same,"remaining at 264 h, 14.6 µg/mL",[5]; pH 9.0,96%
same,half-life at 14.6 µg/mL,"[5]; pH range studied, medium not specified",> 24 h
"C=C/C=C/C1C(=O)N(c2cc(OC)c(OC)c(OC)c2)C1c1ccc(OC)c(N)c1 (stereo not shown) [11r, (E)-4-(3-Amino-4-methoxyphenyl)-3-(buta-1,3-dien-1-yl)-1-(3,4,5-trimethoxyphenyl)azetidin-2-one]",GI50,NCI-H332M,57.9 nM
same,GI50,"SF295; SF-295, 48 h",30.1 nM
"C=CC=CC1C(=O)N(c2cc(OC)c(OC)c(OC)c2)C1c1ccc(OC)cc1 (stereo not shown) [11h, 3-(Buta-1,3-dienyl)-4-(4-methoxyphenyl)-1-(3,4,5-trimethoxyphenyl)azetidin-2-one]",GI50,NCI-H332M,62.6 nM
same,GI50,"SF295; SF-295, 48 h",30.9 nM
same,GI50,"UACC-257; UACC-257, 48 h",11200 nM
